This assay deals with T1, DGAT3 (Chlamydomonas reinhardtii, UniProt A8IMA8).
T1 construct: gene CHLRE_06g310200v5; Trp216, Trp218, Tyr294 (only Trp/Tyr residues); 18 Asp, 22 Glu, 6 Phe, 9 His; chloroplast protein
T1 sequence (A8IMA8 2-346): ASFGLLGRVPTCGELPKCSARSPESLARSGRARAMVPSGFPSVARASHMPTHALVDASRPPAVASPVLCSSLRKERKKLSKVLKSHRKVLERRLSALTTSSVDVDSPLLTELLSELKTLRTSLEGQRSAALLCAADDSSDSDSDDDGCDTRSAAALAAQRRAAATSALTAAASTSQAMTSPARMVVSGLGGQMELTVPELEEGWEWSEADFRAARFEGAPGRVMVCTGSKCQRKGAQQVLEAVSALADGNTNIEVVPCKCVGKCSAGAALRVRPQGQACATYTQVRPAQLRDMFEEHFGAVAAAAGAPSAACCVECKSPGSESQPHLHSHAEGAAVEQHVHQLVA
As to the kind of experiment: steady-state intrinsic Trp fluorescence anisotropy titration with lipid vesicles. Format: binding. The note with it: partition coefficient (protein between water and lipid phase), not a Kd; anionic POPG vesicles (bilayer, not monomeric lipid); 5 uM protein, 50 mM Tris, 100 mM NaCl, 5 mM TCEP, pH 8; 25 °C.

Consider `CCCCCCCC/C=C\CCCCCCCC(=O)O[C@H](COC(=O)CCCCCCCCCCCCCCC)COP(=O)(O)OCC(O)CO` (mixture of isomers) [POPG, 1-palmitoyl-2-oleoyl-sn-glycero-3-phospho-(1′-rac-glycerol)], for which the Kp is on record as ~ 40,000.
